Data on nine compounds can be found in paper PMC6838683, “Discovery of Human Signaling Systems: Pairing Peptides to G Protein-Coupled Receptors” (Cell, 2019).

Assay [1] concerns the target T1, GPR55 (Homo sapiens, UniProt Q9Y2T6). Kind of assay: Dynamic mass redistribution (DMR), concentration-response. To be noted: mean. Set-up: hIL-2Ra signal peptide (N); expressed in transfected cells. The class given is cell-based. The procedure:
(§1) 48 hr prior to parallel assaying, SNAP-tagged oGPCR cells were plated (10,000 cells/well) in fibronectin-coated 384-well Epic biosensor microplates (Corning) and poly-D-lysine coated white 384-well plates (for internalization assays). SNAP- GLP-1 receptor was plated alongside orphan receptor cells as an internal assay control for internalization assays. Receptor-expression was induced with 0.1 μg/ml doxycycline.
DMR assays provide a single integrated readout of ligand-dependent cellular response, utilizing an optical biosensor in specialized microplates to detect wavelength shifts of reflected light as it passes through the biosensor and the lower portion of the cell (∼150-200 nm). As a signal pathway agnostic approach, DMR assays are well-suited to the study of GPCRs ([Fang et al., 2008], [Schröder et al., 2011]). The mass redistribution response (Δ picometer (pm)) likely reflects a number of intracellular events, including cytoskeletal rearrangement, protein trafficking and receptor internalization. Orphan receptor-expressing cells were gently washed twice with assay buffer (HBSS with 1 mM CaCl2, 1 mM MgCl2, 20 mM HEPES, 0.01% pluronic F-68, pH 7.4) containing 0.1% DMSO and cells were equilibrated for 90 min at 22°C in the EPIC Benchtop (BT) System (Corning) to establish a stable DMR signal. After 3-5 min baseline recordings, peptides (10 μM) were added in duplicate wells using an electronic 384-channel Viaflo pipette (Integra Biosciences, Switzerland) and DMR responses were measured for 60 min at 22°C. 100 nM norepinephrine was included as an internal assay control to assess the cellular DMR response via endogenously-expressed adrenoceptors in the TREx 293 cells. Real-time data were processed using the BT to column converter MS-Excel macro (Corning) and analyzed in GraphPad Prism 7.0. DMR recordings in peptide screening experiments were buffer and solvent corrected and the area under the curve (AUC) was quantified. For subsequent validation experiments, peptides were diluted in assay buffer containing 0.1% DMSO and DMR assays were performed as above. […] Data represent mean ± standard error of the mean (SEM) from at least 3 biologically independent experiments.

The target of assay [2] is T1, GPR55. Kind of assay: Real-time receptor internalization (TR-FRET), concentration-response. The class given is cell-based. Further details: hIL-2Ra signal peptide (N); expressed in transfected cells. The procedure:
as §1
A TR-FRET real-time internalization assay was used to examine peptide-dependent changes in orphan receptor localization as described previously ([Foster and Bräuner-Osborne, 2018]). Surface-expressed SNAP-tagged receptors were labeled with a cell-impermeable luminescent terbium cryptate (100 nM SNAP Lumi4-Tb; Cisbio, France) for 1 hr at 37°C. Cells were washed to remove excess terbium and incubated with fluorescein-O-acetic acid (100 μM; Sigma Aldrich) for 5 min at 37°C. Peptides were added as for DMR assays, and internalization responses were recorded for 60 min at 37°C using an EnVision 2104 Multimode plate reader (PerkinElmer). 100 nM GLP-1 was used as a positive control for SNAP-GLP1R internalization. Real-time internalization responses were calculated based on TR-FRET (excitation 340 nm; emission 520 nm and 615 nm), and were expressed as the ratio between donor (terbium) and acceptor (fluorescein) emission. For peptide screening analysis (both DMR and internalization assays), we calculated the area under the curve from the real-time traces. […] Validation experiments for receptor internalization were performed as above. Internalization data was processed in MS-Excel and area under the curve was used to generate concentration-response curves using GraphPad Prism 7.0. Data represent mean ± standard error of the mean (SEM) from at least 3 biologically independent experiments.

The mark [3] stands for this setting: receptor GPR55, SEM and n (2-4), read-out: DMR assays pEC50 (converted).
Where [4] appears, read: receptor GPR55, mean, SEM and n (3-4), read-out: Internalization assays pEC50 (converted).
[5] abbreviates: GPR55, SEM and n, read-out: pEC50, DMR (AUC) (converted).
The mark [6] stands for this setting: GPR55, mean, SEM and n, read-out: pEC50, Internalization (AUC) (converted).

Residues, ends and D or L forms follow the SMILES beside them.

T1 sequence (Q9Y2T6 2-319 limits assumed): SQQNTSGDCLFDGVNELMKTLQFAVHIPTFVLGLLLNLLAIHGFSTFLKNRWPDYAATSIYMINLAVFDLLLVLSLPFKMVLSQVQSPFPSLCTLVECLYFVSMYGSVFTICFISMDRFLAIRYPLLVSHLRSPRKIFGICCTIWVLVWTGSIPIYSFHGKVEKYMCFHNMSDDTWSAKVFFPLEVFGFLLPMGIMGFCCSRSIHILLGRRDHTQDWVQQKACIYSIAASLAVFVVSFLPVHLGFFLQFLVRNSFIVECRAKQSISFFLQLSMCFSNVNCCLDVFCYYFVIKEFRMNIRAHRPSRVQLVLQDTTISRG

For the compound `CC[C@H](C)[C@H](NC(=O)[C@H](CC(=O)O)NC(=O)[C@@H](NC(=O)[C@H](Cc1ccc(O)cc1)NC(=O)[C@@H](NC(=O)CNC(=O)[C@H](CC(N)=O)NC(=O)[C@@H](NC(=O)[C@H](CC(C)C)NC(=O)[C@H](Cc1ccc(O)cc1)NC(=O)[C@H](CC(=O)O)NC(=O)[C@H](CC(C)C)NC(=O)[C@H](CCCNC(=N)N)NC(=O)[C@H](CO)NC(=O)[C@H](Cc1ccc(O)cc1)NC(=O)[C@H](CCCNC(=N)N)NC(=O)[C@@H](N)CCCCN)[C@@H](C)CC)[C@@H](C)CC)C(C)C)C(=O)O` [114 resynthesized] (H-KRYSRLDYLINGIYVDI-OH), the EC50 at GPR55 [1] (setting [3]) is 3890 nM; on GPR55 [2] (setting [4]) it was 15.8 µM.

For `CC(C)C[C@H](NC(=O)[C@H](C)NC(=O)CNC(=O)[C@H](CC(C)C)NC(=O)[C@H](CCCNC(=N)N)NC(=O)[C@@H](N)CCCCN)C(=O)N[C@@H](Cc1ccccc1)C(=O)N[C@@H](CC(N)=O)C(=O)N1CCC[C@H]1C(=O)N[C@@H](Cc1ccc(O)cc1)C(=O)N[C@@H](Cc1ccccc1)C(=O)N[C@@H](CC(=O)O)C(=O)N1CCC[C@H]1C(=O)N[C@@H](CC(C)C)C(=O)N[C@@H](CCC(N)=O)C(=O)N[C@@H](Cc1c[nH]c2ccccc12)C(=O)N[C@@H](CCCCN)C(=O)N[C@@H](CC(N)=O)C(=O)N[C@@H](CO)C(=O)N[C@@H](CC(=O)O)C(=O)N[C@@H](Cc1ccccc1)C(=O)N[C@@H](CCC(=O)O)C(=O)O` [143 resynthesized] (H-KRLGALFNPYFDPLQWKNSDFE-OH), the EC50 at GPR55 [1] (setting [3]) is 3160 nM; at GPR55 [2] (setting [4]), 6.31 µM.

Turning to `CC[C@H](C)[C@H](NC(=O)CNC(=O)[C@H](CC(=O)O)NC(=O)[C@H](CO)NC(=O)[C@@H](N)Cc1cnc[nH]1)C(=O)N[C@@H](Cc1ccccc1)C(=O)N[C@H](C(=O)N[C@@H](CC(=O)O)C(=O)N[C@@H](CO)C(=O)N[C@@H](Cc1ccc(O)cc1)C(=O)N[C@@H](CO)C(=O)N[C@@H](CCCNC(=N)N)C(=O)N[C@@H](Cc1ccc(O)cc1)C(=O)N[C@@H](CCCNC(=N)N)C(=O)N[C@@H](CCCCN)C(=O)N[C@@H](CCC(N)=O)C(=O)N[C@@H](CCSC)C(=O)N[C@@H](C)C(=O)N[C@H](C(=O)N[C@@H](CCCCN)C(=O)N[C@@H](CCCCN)C(=O)N[C@@H](Cc1ccc(O)cc1)C(=O)N[C@@H](CC(C)C)C(=O)N[C@@H](C)C(=O)N[C@@H](C)C(=O)N[C@H](C(=O)N[C@@H](CC(C)C)C(=O)NCC(=O)N[C@@H](CCCCN)C(=O)N[C@@H](CCCNC(=N)N)C(=O)N[C@@H](Cc1ccc(O)cc1)C(=O)N[C@@H](CCCCN)C(=O)N[C@@H](CCC(N)=O)C(=O)N[C@@H](CCCNC(=N)N)C(=O)N[C@H](C(=O)N[C@@H](CCCCN)C(=O)N[C@@H](CC(N)=O)C(=O)N[C@@H](CCCCN)C(N)=O)C(C)C)C(C)C)C(C)C)[C@@H](C)O` [168.1 (Phoenix)], the EC50 on GPR55 [1] (setting [3]) was 148 nM; at GPR55 [2] (Internalization assays pEC50) it was 0.000123 µM.

`CC(C)C[C@H](NC(=O)[C@H](C)NC(=O)CNC(=O)[C@H](CC(C)C)NC(=O)[C@H](CCCNC(=N)N)NC(=O)[C@@H](N)CCCCN)C(=O)N[C@@H](Cc1ccccc1)C(=O)N[C@@H](CC(N)=O)C(=O)N1CCC[C@H]1C(=O)N[C@@H](Cc1ccc(O)cc1)C(=O)N[C@@H](Cc1ccccc1)C(=O)N[C@@H](CC(=O)O)C(=O)N1CCC[C@H]1C(=O)N[C@@H](CC(C)C)C(=O)N[C@@H](CCC(N)=O)C(=O)N[C@@H](Cc1c[nH]c2ccccc12)C(=O)N[C@@H](CCCCN)C(=O)N[C@@H](CC(N)=O)C(=O)N[C@@H](CO)C(=O)N[C@@H](CC(=O)O)C(=O)N[C@@H](Cc1ccccc1)C(=O)N[C@@H](CCC(=O)O)C(=O)O` [Chgb (511-532)] (H-KRLGALFNPYFDPLQWKNSDFE-OH): the EC50 on GPR55 [1] (setting [5]) was 2400 nM; on GPR55 [2] (setting [6]) it was 4.68 µM.

With `CC[C@H](C)[C@H](NC(=O)[C@H](CC(=O)O)NC(=O)[C@@H](NC(=O)[C@H](Cc1ccc(O)cc1)NC(=O)[C@@H](NC(=O)CNC(=O)[C@H](CC(N)=O)NC(=O)[C@@H](NC(=O)[C@H](CC(C)C)NC(=O)[C@H](Cc1ccc(O)cc1)NC(=O)[C@H](CC(=O)O)NC(=O)[C@H](CC(C)C)NC(=O)[C@H](CCCNC(=N)N)NC(=O)[C@H](CO)NC(=O)[C@H](Cc1ccc(O)cc1)NC(=O)[C@H](CCCNC(=N)N)NC(=O)[C@@H](N)CCCCN)[C@@H](C)CC)[C@@H](C)CC)C(C)C)C(=O)O` [MANSC (415-431)] (H-KRYSRLDYLINGIYVDI-OH), the values for the EC50 at GPR55 [1] (setting [5]) and at GPR55 [2] (setting [6]) were 3090 nM and 13.5 µM, respectively.

Regarding `CC(C)C[C@H](NC(=O)[C@H](CCCNC(=N)N)NC(=O)[C@@H](N)CCCCN)C(=O)NCC(=O)N[C@@H](CCC(=O)O)C(=O)N[C@@H](CC(C)C)C(=O)N[C@@H](Cc1ccccc1)C(=O)N[C@@H](CC(N)=O)C(=O)N1CCC[C@H]1C(=O)N[C@@H](Cc1ccc(O)cc1)C(=O)N[C@@H](Cc1ccc(O)cc1)C(=O)N[C@@H](CC(=O)O)C(=O)N1CCC[C@H]1C(=O)N[C@@H](CC(C)C)C(=O)N[C@@H](CCC(N)=O)C(=O)N[C@@H](Cc1c[nH]c2ccccc12)C(=O)N[C@@H](CCCCN)C(=O)N[C@@H](CO)C(=O)N[C@@H](CO)C(=O)N[C@@H](Cc1c[nH]cn1)C(=O)N[C@@H](Cc1ccccc1)C(=O)N[C@@H](CCC(=O)O)C(=O)O` [Peptide 143.1] (H-KRLGELFNPYYDPLQWKSSHFE-OH), on GPR55 [1] (setting [3]), the EC50 was 25100 nM.

Take `CC[C@H](C)[C@H](NC(=O)CNC(=O)[C@H](CC(=O)O)NC(=O)[C@H](CO)NC(=O)[C@@H](N)Cc1c[nH]cn1)C(=O)N[C@@H](Cc1ccccc1)C(=O)N[C@H](C(=O)N[C@@H](CC(=O)O)C(=O)N[C@@H](CO)C(=O)N[C@@H](Cc1ccc(O)cc1)C(=O)N[C@@H](CO)C(=O)N[C@@H](CCCNC(=N)N)C(=O)N[C@@H](Cc1ccc(O)cc1)C(=O)N[C@@H](CCCNC(=N)N)C(=O)N[C@@H](CCCCN)C(=O)N[C@@H](CCC(N)=O)C(=O)N[C@@H](CCSC)C(=O)N[C@@H](C)C(=O)N[C@H](C(=O)O)C(C)C)[C@@H](C)O` [Peptide 168.5]: the “DMR assays Emax (peak or AUC)” value at GPR55 [1] (receptor GPR55, SEM and n (1-4)) was found to be 31768. The values for the EC50 at GPR55 [1] (setting [3]) and at GPR55 [2] (setting [4]) were 1 nM and 75.9 µM, respectively. For the same compound, the “Internalization assays Emax (AUC)” value on GPR55 [2] (receptor GPR55, mean, SEM and n (3-4)) stood at 17.8.

With `CC[C@H](C)[C@H](NC(=O)CNC(=O)[C@H](CC(=O)O)NC(=O)[C@H](CO)NC(=O)[C@@H](N)Cc1c[nH]cn1)C(=O)N[C@@H](Cc1ccccc1)C(=O)N[C@H](C(=O)N[C@@H](CC(=O)O)C(=O)N[C@@H](CO)C(=O)N[C@@H](Cc1ccc(O)cc1)C(=O)N[C@@H](CO)C(=O)N[C@@H](CCCNC(=N)N)C(=O)N[C@@H](Cc1ccc(O)cc1)C(=O)N[C@@H](CCCNC(=N)N)C(=O)N[C@@H](CCCCN)C(=O)N[C@@H](CCC(N)=O)C(=O)N[C@@H](CCSC)C(=O)N[C@@H](C)C(=O)N[C@H](C(=O)N[C@@H](CCCCN)C(=O)N[C@@H](CCCCN)C(=O)N[C@@H](Cc1ccc(O)cc1)C(=O)N[C@@H](CC(C)C)C(=O)N[C@@H](C)C(=O)N[C@@H](C)C(=O)N[C@H](C(=O)N[C@@H](CC(C)C)C(=O)NCC(=O)N[C@@H](CCCCN)C(=O)N[C@@H](CCCNC(=N)N)C(=O)N[C@@H](Cc1ccc(O)cc1)C(=O)N[C@@H](CCCCN)C(=O)N[C@@H](CCC(N)=O)C(=O)N[C@@H](CCCNC(=N)N)C(=O)N[C@H](C(=O)N[C@@H](CCCCN)C(=O)N[C@@H](CC(N)=O)C(=O)N[C@@H](CCCCN)C(=O)NCC(=O)N[C@@H](CCCNC(=N)N)C(=O)N[C@@H](CCCNC(=N)N)C(=O)N[C@H](C(=O)N[C@@H](C)C(=O)N[C@@H](Cc1ccc(O)cc1)C(=O)N[C@@H](CC(C)C)C(=O)O)[C@@H](C)CC)C(C)C)C(C)C)C(C)C)[C@@H](C)O` [Peptide 168.6], the EC50 on GPR55 [1] (setting [3]) is 331 nM; on GPR55 [2] (setting [4]), 0.000115 µM.

Consider `CC(C)C[C@H](NC(=O)[C@@H](N)CC(=O)O)C(=O)N[C@@H](CC(C)C)C(=O)N1CCC[C@H]1C(=O)O` [Peptide 213.1] (H-DLLP-OH), for which the figures for the EC50 on GPR55 [1] (setting [3]) and on GPR55 [2] (setting [4]) were 0.00724 nM and 0.195 µM, respectively.
